Laboratory results published in patent US10344019B2 (priority 2010, dated 2019).
pEC50: −log10 of the molar value. Where two headings read alike, the source gives them in different places.

Key:
Assay in all cases: microbe, parasite or virus in culture
Type in all cases: cell-based
[1] = tested on: HCV 3a RLuc cells (NS5A chimeric genotype 1b Con1 replicon with consensus genotype 3a NS5A gene)
Experimental: (§1) Evaluation of cell-based anti-HCV activity: Antiviral potency (EC50) was determined using a Renilla luciferase (RLuc)-based HCV replicon reporter assay. To perform the assay for genotype 1 and 2a JFH-1, HCV 1b RLuc cells (harboring a dicistronic genotype 1b Con1 replicon that encodes a RLuc reporter), or HCV 1a RLuc cells (harboring a dicistronic genotype 1a H77 replicon that encodes a RLuc reporter), or HCV 2a JFH-1 Rluc cells (harboring a dicistronic genotype 2a JFH-1 replicon that encodes a RLuc reporter) were dispensed into 384-well plates. To perform the assay for genotype 2a (with M31 present) or 2b, HCV 2a Rluc or 2b Rluc cells (both with M31 present) harboring a dicistronic NS5A chimeric genotype 2a JFH-1 replicon that encodes a RLuc reporter and either genotype 2a J6 strain NS5A gene or genotype 2b MD2b-1 NS5A gene (based on Los Alamos HCV database isolates, both with M31 present) respectively, were dispensed into 384-well plates. To perform the assay for genotype 3 and 4, HCV 3a RLuc or 4a Rluc cells harboring a dicistronic NS5A chimeric genotype 1b Con1 replicon that encodes a RLuc reporter and either a consensus genotype 3a NS5A gene or genotype 4a NS5A gene (based on Los Alamos HCV database isolates) respectively, were dispensed into 384-well plates. Compounds were re-suspended in DMSO at a concentration of 10 mM and serially diluted in DMSO either manually or using an automated pipeting instrument. Serially diluted compounds were mixed with cell culture media and added to the seeded cells. […] 72 hours later, cells were lysed and Renilla luciferase activity quantified as recommended by the manufacturer (Promega-Madison, Wis.). Non-linear regression was performed to calculate EC50 values.

[2] = tested on: HCV 4a Rluc cells (NS5A chimeric genotype 1b Con1 replicon with genotype 4a NS5A gene); details: read-out: 4a
Experimental: as §1

[3] = tested on: HCV 1b RLuc cells (dicistronic genotype 1b Con1 replicon, RLuc reporter); details: for EC50: Hepatitis C virus, read-out: 1b (nM)
Experimental: as §1

[4] = tested on: HCV 1a RLuc cells (dicistronic genotype 1a H77 replicon, RLuc reporter); details: read-out: 1a
Experimental: as §1

[5] = tested on: HCV 2a JFH-1 Rluc cells (dicistronic genotype 2a JFH-1 replicon, RLuc reporter); details: genotype 2a JFH-1 replicon, read-out: 2a JFH
Experimental: as §1

[6] = Hepatitis C virus, read-out: 3a, genotype 3a NS5A chimeric 1b Con1 replicon
[7] = Hepatitis C virus, genotype 1a H77 replicon, RLuc reporter
[8] = Hepatitis C virus, RLuc reporter
[9] = Hepatitis C virus, read-out: 3a, Table 2, genotype 3a NS5A chimeric replicon
[10] = Hepatitis C virus, 72 h, Table 2, genotype 1a H77 replicon, 72 hours
[11] = Hepatitis C virus, 72 h, Table 2, 72 hours
[12] = Hepatitis C virus, read-out: 3a, genotype 3a replicon
[13] = Hepatitis C virus, genotype 1a replicon

Row | Structure (SMILES) | pEC50 [1, 6] | pEC50 ([2]; Hepatitis C virus) | EC50 [3] [nM] | pEC50 [4, 7] | pEC50 [5, 8] | pEC50 [1, 12] | pEC50 [4, 13] | pEC50 ([5]; Hepatitis C virus) | further results
1 | COC(=O)N[C@H](C(=O)N1CCC[C@H]1c1nc2ccc(-c3ccc4c(c3)C(F)(F)c3cc(-c5c[nH]c([C@@H]6CCCN6C(=O)[C@@H](NC(=O)OC)C6CCOCC6)n5)ccc3-4)cc2[nH]1)C(C)C [Example 219] | 8.30 to 9.00 | 9.00 to 12.00 | 0.008 | 9.00 to 12.00 | 9.00 to 12.00 | – | – | – | –
2 | COC(=O)NC(C(=O)N1CCC[C@H]1c1ncc(-c2ccc(-c3ccc4cc(-c5cnc([C@@H]6CCCN6C(=O)[C@@H](NC(=O)OC)C(C)C)[nH]5)ccc4c3)cc2)[nH]1)c1cnccn1 (stereo partly drawn) [Example 230] | 8.30 to 9.00 | 8.30 to 9.00 | 0.012 | 9.00 to 12.00 | 7.36 to 9.00 | – | – | – | –
3 | COC(=O)N[C@H](C(=O)N1CCC[C@H]1c1ncc(-c2ccc(-c3ccc4c(ccc5nc([C@@H]6CC7(CN6C(=O)[C@@H](NC(=O)OC)[C@@H](C)OC)OCCO7)[nH]c54)c3)cc2)[nH]1)C(C)C [Example 90] | – | 9.00 to 12.00 | – | – | – | – | – | – | pEC50 [1, 9]: 8.30 to 9.00; EC50 ([3]; 72 h): 0.044 nM; pEC50 [4, 10]: 9.00 to 12.00; pEC50 [5, 11]: 9.00 to 12.00
4 | COC(=O)N[C@H](C(=O)N1CCC[C@H]1c1ncc(-c2ccc3c4ccc(-c5cnc([C@@H]6CCCN6C(=O)[C@@H](NC(=O)OC)[C@@H](C)OC)[nH]5)cc4c4ccccc4c3c2)[nH]1)C(C)C [Example 311] | – | 9.00 to 12.00 | 0.025 | – | – | 9.00 to 12.00 | 9.00 to 12.00 | 9.00 to 12.00 | –
5 | COC(=O)N[C@H](C(=O)N1CCC[C@H]1c1nc(Cl)c(-c2ccc(-c3ccc(-c4[nH]c([C@@H]5CCCN5C(=O)[C@@H](NC(=O)OC)C5CCOCC5)nc4Cl)cc3)cc2)[nH]1)C(C)C [Example 360] | – | 9.00 to 12.00 | 0.053 | – | – | 9.00 to 12.00 | 9.00 to 12.00 | 9.00 to 12.00 | –
6 | COC(=O)N[C@H](C(=O)N1CCS[C@@H]1c1nc2ccc3cc(-c4ccc(-c5cnc([C@@H]6CCCN6C(=O)[C@@H](NC(=O)OC)C6CCOCC6)[nH]5)cc4)ccc3c2[nH]1)C(C)C [Example 332] | – | 9.00 to 12.00 | 1.25 | – | – | 8.30 to 9.00 | 7.36 to 9.00 | 9.00 to 12.00 | –
7 | COC(=O)NC(C(=O)N1CCC[C@H]1C1=NC(c2ccc3cc(-c4ccc5c(ccc6nc([C@@H]7CCCN7C(=O)[C@@H](NC(=O)OC)C7CCOCC7)[nH]c65)c4)ccc3c2)=CC1)c1cccnc1 (stereo partly drawn) [Example 239] | 9.00 to 12.00 | 9.00 to 12.00 | 0.078 | 9.00 to 12.00 | 9.00 to 12.00 | – | – | – | –
8 | COC(=O)N[C@H](C(=O)N1CCC[C@H]1c1ncc(-c2ccc3cc(-c4ccc(-c5cnc([C@@H]6CCCN6C(=O)[C@@H](NC(=O)OC)[C@@H](C)OC(C)(C)C)[nH]5)cc4)ccc3c2)[nH]1)C(C)C [Example 265] | 8.30 to 9.00 | 9.00 to 12.00 | 0.042 | 7.36 to 9.00 | 7.36 to 9.00 | – | – | – | –
9 | COC(=O)N[C@H](C(=O)N1CCC[C@H]1c1ncc(-c2ccc(-c3ccc(-c4[nH]c([C@@H]5CCCN5C(=O)[C@@H](NC(=O)OC)C(C)C)nc4Cl)cc3)cc2)[nH]1)C(C)C [Example 359] | – | 9.00 to 12.00 | 0.011 | – | – | 9.00 to 12.00 | 9.00 to 12.00 | 9.00 to 12.00 | –
10 | COC(=O)N[C@H](C(=O)N1[C@@H]2CC[C@@H](C2)[C@H]1c1ncc(-c2ccc3cc(-c4ccc5c(ccc6nc([C@@H]7CCCN7C(=O)[C@H](NC(=O)OC)c7ccccc7)[nH]c65)c4)ccc3c2)[nH]1)[C@@H](C)OC [Example 102] | – | 9.00 to 12.00 | – | – | – | – | – | – | pEC50 [1, 9]: 9.00 to 12.00; EC50 ([3]; 72 h): 0.009 nM; pEC50 [4, 10]: 9.00 to 12.00; pEC50 [5, 11]: 9.00 to 12.00
11 | COC(=O)N[C@H](C(=O)N1CCC[C@H]1c1ncc(-c2ccc(-c3ccc4c(c3)c3ccccc3c3nc([C@@H]5CCCN5C(=O)[C@@H](NC(=O)OC)C(C)C)[nH]c43)cc2)[nH]1)C(C)C [Example 299] | – | 9.00 to 12.00 | 0.017 | – | – | < 8.30 | 7.36 to 9.00 | 7.36 to 9.00 | –
12 | COC(=O)N[C@H](C(=O)N1CCC[C@H]1c1nc2ccc3cc(-c4ccc5cc(-c6cnc([C@@H]7CCCN7C(=O)[C@H](NC(=O)OC7COC7)c7ccccc7)[nH]6)ccc5c4)ccc3c2[nH]1)C(C)C [Example 289] | 9.00 to 12.00 | 9.00 to 12.00 | 0.01 | 9.00 to 12.00 | 9.00 to 12.00 | – | – | – | –
13 | CC#Cc1cc(-c2cnc([C@@H]3CCCN3C(=O)[C@@H](NC(=O)OC)C(C)C)[nH]2)ccc1-c1ccc(-c2cnc([C@@H]3CCCN3C(=O)[C@H](NC(=O)OC)c3ccccc3)[nH]2)cc1 [Example 348] | – | 9.00 to 12.00 | 0.011 | – | – | 9.00 to 12.00 | 9.00 to 12.00 | 9.00 to 12.00 | –
14 | COC(=O)N[C@H](C(=O)N1[C@@H]2CC[C@@H](C2)[C@H]1c1nc2ccc(-c3ccc4c(c3)C(F)(F)c3cc(-c5cnc([C@@H]6CCCN6C(=O)[C@H](NC(=O)OC)c6ccccc6)[nH]5)ccc3-4)cc2[nH]1)C1CCOCC1 [Example 57] | – | 9.00 to 12.00 | – | – | – | – | – | – | pEC50 [1, 9]: 9.00 to 12.00; EC50 ([3]; 72 h): 0.009 nM; pEC50 [4, 10]: 9.00 to 12.00; pEC50 [5, 11]: 9.00 to 12.00
15 | COC(=O)N[C@H](C(=O)N1[C@@H]2CC[C@@H](C2)[C@H]1c1ncc(-c2ccc3c(c2)CCc2cc(-c4cnc([C@@H]5CCCN5C(=O)[C@@H](NC(=O)OC)C5CCOCC5)[nH]4)ccc2-3)[nH]1)C(C)C [Example 86] | – | 9.00 to 12.00 | – | – | – | – | – | – | pEC50 [1, 9]: 8.30 to 9.00; EC50 ([3]; 72 h): 0.034 nM; pEC50 [4, 10]: 9.00 to 12.00; pEC50 [5, 11]: 9.00 to 12.00
16 | COC(=O)N[C@H](C(=O)N1CCC[C@H]1c1nc2ccc(-c3ccc4c(c3)sc3cc(-c5cnc([C@@H]6CCCN6C(=O)[C@H](NC(=O)OC)c6ccccc6)[nH]5)ccc34)cc2[nH]1)[C@@H](C)OC [Example 251] | 9.00 to 12.00 | 9.00 to 12.00 | 0.01 | 9.00 to 12.00 | 9.00 to 12.00 | – | – | – | –
17 | COC(=O)N[C@H](C(=O)N1CCC[C@H]1c1ncc(-c2ccc3cc(-c4ccc5c(c4)CCc4nc([C@@H]6CCCN6C(=O)[C@@H](NC(=O)OC)C6CCOCC6)[nH]c4-5)ccc3c2)[nH]1)C(C)C [Example 222] | – | – | – | – | – | – | – | – | pEC50 ([1]; read-out: 3a, genotype 3a NS5A chimeric 1b Con1 replicon): 9.00 to 12.00; pEC50 ([2]; genotype 4a NS5A chimeric 1b Con1 replicon): 9.00 to 12.00; pEC50 ([3]; read-out: 1b): 10.64; pEC50 ([4]; genotype 1a H77 replicon, RLuc reporter): 9.00 to 12.00; pEC50 ([5]; RLuc reporter): 9.00 to 12.00
18 | COC(=O)N[C@H](C(=O)N1CCC[C@H]1c1ncc(-c2ccc3cc(-c4ccc(-c5cnc([C@@H]6CCCN6C(=O)[C@H](NC(=O)c6ccccn6)c6ccccc6)[nH]5)cc4)ccc3c2)[nH]1)C(C)C [Example 221] | 9.00 to 12.00 | 9.00 to 12.00 | 0.017 | 9.00 to 12.00 | 9.00 to 12.00 | – | – | – | –
